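Values below derive from 48-hour exposures of cells grown in 96-well plates, with endpoints linearly interpolated between the two concentrations bracketing the appropriate inhibition level. TGI denotes the concentration required for complete inhibition of growth.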
Experiments:
Experiment in all cases: NCI tumour cell line growth inhibition, 48 h
[1] = test system: A498 renal
[2] = test system: ACHN renal
[3] = test system: BT-549 breast
[4] = test system: CAKI-1 renal
[5] = test system: CCRF-CEM leukemia
[6] = test system: EKVX NSCLC
[7] = test system: HCC-2998 colon
[8] = test system: HCT-15 colon
[9] = test system: HL-60(TB) leukemia
[10] = test system: HOP-92 NSCLC
[11] = test system: K-562 leukemia
[12] = test system: KM12 colon
[13] = test system: MDA-MB-231 breast
[14] = test system: MDA-MB-435
[15] = test system: MDA-N
[16] = test system: MOLT-4 leukemia
[17] = test system: NCI-H226 lung
[18] = test system: NCI-H23 lung
[19] = test system: NCI-H460 lung
[20] = test system: NCI/ADR-RES ovarian
[21] = test system: OVCAR-4 ovarian
[22] = test system: OVCAR-8 ovarian
[23] = test system: RPMI-8226 leukemia
[24] = test system: SF-268 CNS
[25] = test system: SK-MEL-28 melanoma
[26] = test system: SN12C renal
[27] = test system: SNB-19 CNS
[28] = test system: SNB-75 CNS
[29] = test system: SR leukemia
[30] = test system: SW-620 colon
[31] = test system: TK-10 renal
[32] = test system: U251 CNS
[33] = test system: UACC-257 melanoma
[34] = test system: UACC-62 melanoma
[35] = test system: UO-31 renal
[36] = test system: 786-0 renal
[37] = test system: COLO 205 colon
[38] = test system: DU-145 prostate
[39] = test system: HS 578T breast
[40] = test system: M14 melanoma
[41] = test system: OVCAR-3 ovarian
[42] = test system: OVCAR-5 ovarian
[43] = test system: PC-3 prostate
[44] = test system: SK-OV-3 ovarian
[45] = test system: A549 NSCLC
[46] = test system: HCT-116 colon
[47] = test system: HOP-62 NSCLC
[48] = test system: HT29 colon
[49] = test system: IGROV1 ovarian
[50] = test system: LOX IMVI melanoma
[51] = test system: MALME-3M melanoma
[52] = test system: MCF7 breast
[53] = test system: NCI-H522 lung
[54] = test system: SF-295 CNS
[55] = test system: SK-MEL-2 melanoma
[56] = test system: SK-MEL-5 melanoma

## CC1(C)C2CCC(CN)(C2)C1O (stereo not given)
[1]
  TGI: > 100 µM
[2]
  TGI: > 100 µM
[3]
  TGI: > 100 µM
[4]
  TGI: > 100 µM
[5]
  TGI: > 100 µM
[6]
  TGI: > 100 µM
[7]
  TGI: > 100 µM
[8]
  TGI: > 100 µM
[9]
  TGI: > 100 µM
[10]
  TGI: > 100 µM
[11]
  TGI: > 100 µM
[12]
  TGI: > 100 µM
[13]
  TGI: > 100 µM
[14]
  TGI: > 100 µM
[15]
  TGI: > 100 µM
[16]
  TGI: > 100 µM
[17]
  TGI: > 100 µM
[18]
  TGI: > 100 µM
[19]
  TGI: > 100 µM
[20]
  TGI: > 100 µM
[21]
  TGI: > 100 µM
[22]
  TGI: > 100 µM
[23]
  TGI: > 100 µM
[24]
  TGI: > 100 µM
[25]
  TGI: > 100 µM
[26]
  TGI: > 100 µM
[27]
  TGI: > 100 µM
[28]
  TGI: > 100 µM
[29]
  TGI: > 100 µM
[30]
  TGI: > 100 µM
[31]
  TGI: > 100 µM
[32]
  TGI: > 100 µM
[33]
  TGI: > 100 µM
[34]
  TGI: > 100 µM
[35]
  TGI: > 100 µM

## C/C=C1/CN2CCc3c([nH]c4ccccc34)[C@@H]2C[C@@H]1Cc1[nH]ccc2c1[nH]c1cc(=O)ccc12
[36]
  TGI: 3.19 µM
[1]
  TGI: 4.94 µM
[2]
  TGI: > 100 µM
[3]
  TGI: 31.4 µM
[4]
  TGI: 3.8 µM
[5]
  TGI: > 100 µM
[37]
  TGI: > 100 µM
[38]
  TGI: 4.26 µM
[6]
  TGI: 4.05 µM
[8]
  TGI: 10.6 µM
[10]
  TGI: 37.6 µM
[39]
  TGI: 4.15 µM
[11]
  TGI: > 100 µM
[40]
  TGI: 4.78 µM
[14]
  TGI: 3.45 µM
[15]
  TGI: 4.51 µM
[16]
  TGI: > 100 µM
[17]
  TGI: > 100 µM
[18]
  TGI: 3.34 µM
[19]
  TGI: 64.4 µM
[20]
  TGI: 3.49 µM
[41]
  TGI: 5.15 µM
[21]
  TGI: 3.73 µM
[42]
  TGI: 8.64 µM
[22]
  TGI: 3.17 µM
[43]
  TGI: 6.88 µM
[24]
  TGI: 3.33 µM
[25]
  TGI: 4.5 µM
[44]
  TGI: 4.4 µM
[26]
  TGI: 3.17 µM
[27]
  TGI: > 100 µM
[28]
  TGI: 3.36 µM
[29]
  TGI: > 100 µM
[30]
  TGI: > 100 µM
[31]
  TGI: 4.33 µM
[34]
  TGI: 3.62 µM
[35]
  TGI: 2.94 µM

## O=S(=O)(N/N=C1\CC2CCC1C2)c1ccccc1 (stereo not given)
[36]
  TGI: > 100 µM
[45]
  TGI: > 100 µM
[2]
  TGI: > 100 µM
[3]
  TGI: > 100 µM
[4]
  TGI: > 100 µM
[5]
  TGI: > 100 µM
[37]
  TGI: > 100 µM
[38]
  TGI: > 100 µM
[6]
  TGI: > 100 µM
[46]
  TGI: > 100 µM
[8]
  TGI: > 100 µM
[9]
  TGI: > 100 µM
[47]
  TGI: > 100 µM
[10]
  TGI: > 100 µM
[39]
  TGI: > 100 µM
[48]
  TGI: > 100 µM
[49]
  TGI: > 100 µM
[11]
  TGI: > 100 µM
[12]
  TGI: > 100 µM
[50]
  TGI: > 100 µM
[40]
  TGI: > 100 µM
[51]
  TGI: > 100 µM
[52]
  TGI: > 100 µM
[14]
  TGI: > 100 µM
[15]
  TGI: > 100 µM
[16]
  TGI: > 100 µM
[17]
  TGI: > 100 µM
[18]
  TGI: > 100 µM
[19]
  TGI: > 100 µM
[53]
  TGI: > 100 µM
[20]
  TGI: > 100 µM
[41]
  TGI: > 100 µM
[21]
  TGI: > 100 µM
[42]
  TGI: > 100 µM
[22]
  TGI: > 100 µM
[43]
  TGI: > 100 µM
[23]
  TGI: > 100 µM
[24]
  TGI: > 100 µM
[54]
  TGI: > 100 µM
[55]
  TGI: > 100 µM
[25]
  TGI: > 100 µM
[56]
  TGI: > 100 µM
[44]
  TGI: > 100 µM
[26]
  TGI: > 100 µM
[27]
  TGI: > 100 µM
[28]
  TGI: > 100 µM
[29]
  TGI: > 100 µM
[30]
  TGI: > 100 µM
[31]
  TGI: > 100 µM
[32]
  TGI: > 100 µM
[33]
  TGI: > 100 µM
[34]
  TGI: > 100 µM
[35]
  TGI: > 100 µM
